# Experimental data as given in PMC7582476, “Discovery of Novel Indoleamine 2,3-Dioxygenase 1 (IDO1) and Histone Deacetylase 1 (HDAC1) Dual Inhibitors Derived from the Natural Product Saprorthoquinone” (Molecules, 2020).
# Like-named read-outs stand apart in the source and are kept apart here.
# Experiments:
# [1] = molecular target: T1, IDO1 (Homo sapiens, UniProt P14902); experiment: IDO1 enzymatic assay; assay type: biochemical; settings: for IC50: mean ± SD of at least two independent assays
# T1 construct: No. 20160706
# Method: (1) Prepare 100× compound of the final desired highest inhibitor concentration in reaction by 100% DMSO. For example, if compounds test at 10 μM, then prepare 1 mM of compound solution in this step. Then dilute compound with DMSO in 3-fold mode to obtain different concentrations. Mark as source plate. (2) Add 100 μL of 100% DMSO to column 1 and column 12 for background control and no compound high control respectively.
# Transfer 2 μL of each well from the 96-well source plate to a 96-well assay plate.
# • (3) Enzyme Reaction • Prepare 2× enzyme solution. Add IDO-1 in assay buffer. • Prepare 2× substrate solution. Add L-tryptophan, ascorbate, methylene blue, catalase in the assay buffer. • Assay plate already contains 2 μL of compound in 100% DMSO. • Transfer 2× enzyme solution to the assay plate. Add 100 μL of 2× enzyme solution to each well of the 96-well assay plate. • Incubate at room temperature for 10 min. • Transfer […] to each well of the 96-well assay plate. • Read OD321 kinetically by Spectramax (Molecular Devices, LLC, San Jose, CA, USA). • (4) Curve Fitting • Copy data from Spectramax program. Percent inhibition = (max-conversion)/(max − min) × 100. “max” stands for high control; “min” stands for low control. • Fit the data in XL-Fit to obtain IC50 values. Equation used is: Y = Bottom + (Top − Bottom)/(1 + 10^((LogIC50 − X) × Hill Slope)
# [2] = test system: A549 cell line; experiment: Anti-proliferation assay in A549 cell line (CellTiter-Glo); assay type: cell-based; settings: Homo sapiens; A549 cells, 48 h, CTG assay
# Method: Cell viability was measured by the CellTiter-Glo Luminescent (CTG) assay. A549 cells (ATCC, Cat. No.CCL-185) were seeded (2000 cells/well) in 96-well plates and cells were left to incubate at 37 °C for 24 h. After 24 h, prepare compounds with 5-fold dilution in DMSO to the compound plate (200-fold of the final concentration) and transfer 5 μL from the compound plate to 95 μL intermediate medium in the intermediate plate (10-fold of the final concentration). Then transfer 10 μL from the intermediate plate to the cell plates. The final DMSO is 0.5%. After continuing to incubate for 48 h, add 50 μL CTG reagent to each well and read luminescence according to CTG product manual.
# [3] = molecular target: T2, HDAC1 (Homo sapiens, UniProt Q13547); experiment: HDAC enzymatic assay; assay type: biochemical; settings: mean ± SD of at least two independent assays
# T2 construct: purchased BPS Bioscience Inc. 50051
# Method: • (1) Prepare 1× assay buffer (modified Tris Buffer). • (2) Compound serial dilution: Transfer compounds to assay plate by Echo in 100% DMSO. The final fraction of DMSO is 1%. • (3) Prepare enzyme solution in 1× assay buffer. • (4) Add trypsin and Ac-peptide substrate in 1× assay buffer to make the substrate solution. • (5) Transfer 15 μL of enzyme solution to assay plate or for low control transfer 15 μL of 1× assay buffer. • (6) Incubate at room temperature for 15 min. • (7) Add 10 μL of substrate solution to each well to start reaction. • (8) Incubate at room temperature for 60 min. • (9) Read the plate on Synergy MX with excitation at 355 nm and emission at 460 nm. • (10) Curve fitting: Fit the data in Excel to obtain inhibition values using Equation (1).
# Inh% = (Max − Signal)/(Max − Min) × 100(1)
# Fit the data in XL-Fit to obtain IC50 values using Equation (2); Y = Bottom + (Top − Bottom)/(1 + 10^((LogIC50 − X) × Hill Slope))(2)
# Y is %inhibition and X is compound concentration.
# [4] = 10 μM, Table 1 natural products, read-out: IDO1 Inhibition @ 10 μM (%)
# [5] = 10 μM, Tables 2 and 3, read-out: IDO1 % Inhibition at 10 μM (converted)
# [6] = 10 μM, Table 1 natural products
# T2 sequence (Q13547 whole entry): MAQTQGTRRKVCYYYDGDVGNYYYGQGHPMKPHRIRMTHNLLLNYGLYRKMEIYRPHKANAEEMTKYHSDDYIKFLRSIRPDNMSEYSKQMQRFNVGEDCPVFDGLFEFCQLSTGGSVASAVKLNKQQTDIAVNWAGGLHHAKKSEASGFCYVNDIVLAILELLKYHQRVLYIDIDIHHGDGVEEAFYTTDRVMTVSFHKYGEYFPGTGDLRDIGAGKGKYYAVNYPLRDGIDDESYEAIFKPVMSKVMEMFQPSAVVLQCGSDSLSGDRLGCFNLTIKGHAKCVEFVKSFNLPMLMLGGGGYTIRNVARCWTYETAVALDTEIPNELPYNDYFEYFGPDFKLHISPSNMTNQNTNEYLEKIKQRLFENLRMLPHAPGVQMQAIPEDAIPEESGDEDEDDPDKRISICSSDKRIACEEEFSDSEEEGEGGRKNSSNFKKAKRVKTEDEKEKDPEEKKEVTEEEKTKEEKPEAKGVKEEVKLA
# T1 sequence (P14902 whole entry): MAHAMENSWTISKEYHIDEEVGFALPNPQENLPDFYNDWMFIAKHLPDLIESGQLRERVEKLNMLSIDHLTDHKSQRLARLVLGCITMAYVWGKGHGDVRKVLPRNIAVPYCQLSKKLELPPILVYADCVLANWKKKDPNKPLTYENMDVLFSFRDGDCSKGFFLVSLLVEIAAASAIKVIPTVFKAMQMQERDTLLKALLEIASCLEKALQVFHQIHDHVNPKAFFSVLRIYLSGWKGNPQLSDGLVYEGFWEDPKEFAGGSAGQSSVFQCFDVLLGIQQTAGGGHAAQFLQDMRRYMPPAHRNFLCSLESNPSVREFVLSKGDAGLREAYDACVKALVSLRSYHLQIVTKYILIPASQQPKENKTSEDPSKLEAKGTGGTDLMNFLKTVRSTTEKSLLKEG
Structure (SMILES),"inhibition at 10 µM [1, 4] [%]","inhibition at 10 µM [1, 5] [%]",IC50 [2] [µM],further results
"CC(C)=CCCc1c(C)ccc2c1C(=O)C(=O)C(C(C)C)=C2 [Compound 1, saprorthoquinone]",85,85,9.97,IC50 [1]: 1.76 ± 0.27 µM
Cc1coc2c1C(=O)C(=O)c1c-2ccc2c(C)cccc12 [Compound 4],65,,,
CC(C)C1=Cc2ccc3c(c2C(=O)C1=O)CCCC3(C)C [Compound 5],,,,inhibition at 10 µM ([1]; read-out: IDO1 Inhibition @ 10 μM (%)): 81%
CC1COC2=C1C(=O)C(=O)c1c2ccc2c1CCCC2(C)C (centres unmarked) [Compound 6],66,,,
Cc1ccc2c(c1CCC(=O)C(C)C)C(=O)C(=O)C(C(C)C)=C2 [Compound 7],86,,,
Cc1ccc2c(c1C(=O)CCC(C)(C)O)C(=O)C(=O)C(C(C)C)=C2 [Compound 8],73,,,
COC(=O)[C@@]1(C)CCCc2c1ccc1c2C(=O)C(=O)C2=C1OCC2C (some centres unmarked) [Compound 9],61,,,
CC(C)C1=C(O)C(=O)C2=C(CC[C@H]3C(C)(C)CCC[C@]23C)C1=O [Compound 10],2,,,"IDO1 Inhibition @ 10 μM (%) [1, 6]: almost lost their activity"
Cc1ccc2c(c1CCCC(C)(C)O)C(=O)C(O)=C(C(C)C)C2=O [Compound 11],2,,,"IDO1 Inhibition @ 10 μM (%) [1, 6]: almost lost their activity"
Cc1cccc2c3c(ccc12)C(=O)C(C(C)C)=C(O)C3=O [Compound 12],13,,,
CC(C)C1=CC(=O)C([C@@]2(C)CCCC(C)(C)[C@@H]2CC=O)=CC1=O [Compound 13],6,,,
CC(C)=CCCc1c(C)ccc2c1C(=O)C(O)=C(C(C)C)C2=O [Compound 14],30,,,
CC(C)C1=C(O)C(=O)C23OC2(C(=O)CC2C(C)(C)CCCC23C)C1=O (centres unmarked) [Compound 15],3,,,"IDO1 Inhibition @ 10 μM (%) [1, 6]: almost lost their activity"
Cc1ccc2c(c1/C=C\C(=O)C(C)(C)O)C(=O)C(O)=C(C(C)C)C2=O [Compound 16],3,,,"IDO1 Inhibition @ 10 μM (%) [1, 6]: almost lost their activity"
"Cc1ccc2c(c1CCC(O)C(C)(C)O)C(=O)C(=O)C(C(C)C)=C2 (centres unmarked) [Compound 17, 8-(3,4-Dihydroxy-4-methylpentyl)-3-isopropyl-7-methylnaphthalene-1,2-dione]",,90,12.8,IC50 [1]: 0.74 ± 0.15 µM
"Cc1ccc2c(c1CCC(=O)O)C(=O)C(=O)C(C(C)C)=C2 [Compound 18, 3-(6-Isopropyl-2-methyl-7,8-dioxo-7,8-dihydronaphthalen-1-yl)propanoic acid]",,86,> 20,IC50 [1]: 0.99 ± 0.24 µM
"Cc1ccc2c(c1CCC(N)=O)C(=O)C(=O)C(C(C)C)=C2 [Compound 19, 3-(6-Isopropyl-2-methyl-7,8-dioxo-7,8-dihydro-naphthalen-1-yl)propanamide]",,78,14.5,IC50 [1]: 0.51 ± 0.04 µM

# Continued, in another order:
"inhibition at 10 µM [1, 4] [%]","inhibition at 10 µM [1, 5] [%]",IC50 [2] [µM],Structure (SMILES),further results
,80,13.1,"Cc1ccc2c(c1CCC(=O)Nc1cccc(F)c1)C(=O)C(=O)C(C(C)C)=C2 [Compound 21a, N-(3-Fluorophenyl)-3-(6-isopropyl-2-methyl-7,8-dioxo-7,8-dihydronaphthalen-1-yl)propanamide]",IC50 [1]: 1.33 ± 0.01 µM
,64,14.8,"Cc1ccc2c(c1CCC(=O)Nc1ccc(F)cc1)C(=O)C(=O)C(C(C)C)=C2 [Compound 21b, N-(4-Fluorophenyl)-3-(6-isopropyl-2-methyl-7,8-dioxo-7,8-dihydronaphthalen-1-yl)propanamide]",
,64,7.49,"Cc1ccc2c(c1CCC(=O)Nc1ccc(C(F)(F)F)cc1)C(=O)C(=O)C(C(C)C)=C2 [Compound 21c, 3-(6-Isopropyl-2-methyl-7,8-dioxo-7,8-dihydronaphthalen-1-yl)-N-(4-(trifluoromethyl)phenyl)propanamide]",
,65,9.31,"Cc1ccc2c(c1CCC(=O)Nc1ccc(F)c(Br)c1)C(=O)C(=O)C(C(C)C)=C2 [Compound 21d, N-(3-Bromo-4-fluorophenyl)-3-(6-isopropyl-2-methyl-7,8-dioxo-7,8-dihydronaphthalen-1-yl)propanamide]",
,66,> 20,"COc1ccc(NC(=O)CCc2c(C)ccc3c2C(=O)C(=O)C(C(C)C)=C3)cc1 [Compound 21e, 3-(6-Isopropyl-2-methyl-7,8-dioxo-7,8-dihydronaphthalen-1-yl)-N-(4-methoxyphenyl)propanamide]",
,79,> 20,"Cc1ccc2c(c1CCC(=O)NCc1c[nH]c3ccccc13)C(=O)C(=O)C(C(C)C)=C2 [Compound 21f, N-((1H-indol-3-yl)methyl)-3-(6-isopropyl-2-methyl-7,8-dioxo-7,8-dihydronaphthalen-1-yl)propanamide]",
,74,12.2,"Cc1ccc2c(c1CCC(=O)NCc1cn(C)c3ccccc13)C(=O)C(=O)C(C(C)C)=C2 [Compound 21g, 3-(6-Isopropyl-2-methyl-7,8-dioxo-7,8-dihydronaphthalen-1-yl)-N-((1-methyl-1H-indol-3-yl)methyl)-propanamide]",
,91,11.8,"Cc1ccc2c(c1CCCOS(C)(=O)=O)C(=O)C(=O)C(C(C)C)=C2 [Compound 24a, 3-(6-Isopropyl-2-methyl-7,8-dioxo-7,8-dihydronaphthalen-1-yl)propyl methanesulfonate]",IC50 [1]: 0.72 ± 0.13 µM
,87,15.5,"CCS(=O)(=O)OCCCc1c(C)ccc2c1C(=O)C(=O)C(C(C)C)=C2 [Compound 24b, 3-(6-Isopropyl-2-methyl-7,8-dioxo-7,8-dihydronaphthalen-1-yl)propyl ethanesulfonate]",
,86,11.1,"Cc1ccc2c(c1CCCOS(N)(=O)=O)C(=O)C(=O)C(C(C)C)=C2 [Compound 24c, 3-(6-Isopropyl-2-methyl-7,8-dioxo-7,8-dihydronaphthalen-1-yl)propyl sulfamate]",
,88,17.8,"Cc1ccc2c(c1CCC(=O)Nc1ccccc1N)C(=O)C(=O)C(C(C)C)=C2 [Compound 27a, N-(2-Aminophenyl)-3-(6-isopropyl-2-methyl-7,8-dioxo-7,8-dihydronaphthalen-1-yl)propanamide]",IC50 [3]: > 100 µM; IC50 [1]: 0.72 ± 0.1 µM
,84,9.51,"Cc1ccc2c(c1CCC(=O)Nc1cc(F)ccc1N)C(=O)C(=O)C(C(C)C)=C2 [Compound 27b, N-(2-Amino-5-fluorophenyl)-3-(6-isopropyl-2-methyl-7,8-dioxo-7,8-dihydronaphthalen-1-yl)propanamide]",IC50 [3]: > 100 µM
,56,> 20,"Cc1ccc2c(c1CCC(=O)Nc1ccc(F)cc1N)C(=O)C(=O)C(C(C)C)=C2 [Compound 27c, N-(2-amino-4-fluorophenyl)-3-(6-isopropyl-2-methyl-7,8-dioxo-7,8-dihydronaphthalen-1-yl)propanamide]",IC50 [3]: > 100 µM
,89,> 20,"Cc1ccc2c(c1CCC(=O)NCCC(=O)Nc1ccccc1N)C(=O)C(=O)C(C(C)C)=C2 [Compound 33a, N-(2-aminophenyl)-3-(3-(6-isopropyl-2-methyl-7,8-dioxo-7,8-dihydronaphthalen-1-yl)propanamido)-propanamide]",IC50 [3]: > 100 µM
